Experimental data taken from ChEMBL document CHEMBL4261488, “Do GluN2B subunit containing NMDA receptors tolerate a fluorine atom in the phenylalkyl side chain?” (Medchemcomm, 2017).

Key:
[1] = target: Glutamate receptor ionotropic, NMDA 2B (Homo sapiens, UniProt Q13224); test: Displacement of [3H]-ifenprodil from GluN2B receptor (unknown origin) expressed in mouse L (tk-) cell membranes after 120 mins by scintillation counting method
Sus scrofa = organism: Sus scrofa; test: Displacement of [3H]-(+)-MK-801 from PCP binding site of NMDA receptor in pig brain cortex membranes at 1 uM after 90 mins by scintillation counting method relative to control; format: cell membranes
[2] = Displacement of [3H]-di-o-tolylguanidine from sigma 2 receptor in rat liver membranes after 120 mins by scintillation counting analysis; format: cell membranes, Membrane
[3] = target: Sigma non-opioid intracellular receptor 1 (Cavia porcellus, UniProt Q60492); format: cell membranes, Brain, Membrane
Chain of Sigma non-opioid intracellular receptor 1 (Q60492 whole entry): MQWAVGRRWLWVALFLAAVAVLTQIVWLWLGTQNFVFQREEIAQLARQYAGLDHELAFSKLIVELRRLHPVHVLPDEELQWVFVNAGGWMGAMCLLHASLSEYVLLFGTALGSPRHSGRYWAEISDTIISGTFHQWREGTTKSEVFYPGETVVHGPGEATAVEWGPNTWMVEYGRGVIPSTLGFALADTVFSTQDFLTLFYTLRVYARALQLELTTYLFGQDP

Chain of Glutamate receptor ionotropic, NMDA 2B (Q13224 whole entry): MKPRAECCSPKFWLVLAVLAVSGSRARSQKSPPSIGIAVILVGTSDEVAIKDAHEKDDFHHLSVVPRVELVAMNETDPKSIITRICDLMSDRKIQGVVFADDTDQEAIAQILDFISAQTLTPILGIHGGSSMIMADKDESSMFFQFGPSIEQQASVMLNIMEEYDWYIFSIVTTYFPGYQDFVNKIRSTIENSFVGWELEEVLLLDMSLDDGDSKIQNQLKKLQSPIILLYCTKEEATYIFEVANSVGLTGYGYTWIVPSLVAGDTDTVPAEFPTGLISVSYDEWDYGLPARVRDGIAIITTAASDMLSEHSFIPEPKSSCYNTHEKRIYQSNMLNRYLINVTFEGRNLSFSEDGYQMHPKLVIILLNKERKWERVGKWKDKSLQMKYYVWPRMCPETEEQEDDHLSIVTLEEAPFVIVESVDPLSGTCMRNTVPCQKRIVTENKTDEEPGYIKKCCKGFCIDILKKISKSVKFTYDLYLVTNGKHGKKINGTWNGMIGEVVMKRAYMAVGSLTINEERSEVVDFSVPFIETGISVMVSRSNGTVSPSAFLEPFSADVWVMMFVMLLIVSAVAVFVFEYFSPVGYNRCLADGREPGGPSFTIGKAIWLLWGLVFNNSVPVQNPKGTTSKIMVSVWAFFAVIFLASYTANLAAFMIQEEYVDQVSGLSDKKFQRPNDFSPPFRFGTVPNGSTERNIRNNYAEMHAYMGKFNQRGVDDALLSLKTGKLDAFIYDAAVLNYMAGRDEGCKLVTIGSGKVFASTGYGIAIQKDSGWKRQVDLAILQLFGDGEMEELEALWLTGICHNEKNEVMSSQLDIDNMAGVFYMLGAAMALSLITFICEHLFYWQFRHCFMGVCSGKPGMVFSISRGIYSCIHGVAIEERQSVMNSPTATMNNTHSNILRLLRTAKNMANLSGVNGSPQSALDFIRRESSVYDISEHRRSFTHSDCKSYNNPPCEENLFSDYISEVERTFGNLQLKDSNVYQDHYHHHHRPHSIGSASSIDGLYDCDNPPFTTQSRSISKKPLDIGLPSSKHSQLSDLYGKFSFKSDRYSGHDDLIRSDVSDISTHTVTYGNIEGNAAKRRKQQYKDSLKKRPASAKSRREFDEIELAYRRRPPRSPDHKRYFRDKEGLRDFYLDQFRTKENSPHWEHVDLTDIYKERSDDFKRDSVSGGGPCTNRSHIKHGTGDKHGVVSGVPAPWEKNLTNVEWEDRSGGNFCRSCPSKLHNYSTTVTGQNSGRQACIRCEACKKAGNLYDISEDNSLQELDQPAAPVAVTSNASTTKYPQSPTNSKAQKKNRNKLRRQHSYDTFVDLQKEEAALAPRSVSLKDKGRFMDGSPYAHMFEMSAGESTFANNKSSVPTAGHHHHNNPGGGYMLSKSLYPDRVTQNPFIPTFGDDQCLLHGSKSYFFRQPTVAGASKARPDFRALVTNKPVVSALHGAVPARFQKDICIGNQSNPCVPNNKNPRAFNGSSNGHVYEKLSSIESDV

SMILES | Ki [1] [nM] | inhibition (Sus scrofa) [%] | Ki [2] [nM] | Ki [3] [nM]
FC(CCc1ccccc1)CNC1CCc2ccccc2CC1 (stereo not given) | 27 | 3 | 19 | 82
FC(CNC1CCc2ccccc2CC1)Cc1ccccc1 (stereo not given) | 17 | 2 | 14 | 54
COc1ccc2c(c1)CC[C@H](NCCCc1ccccc1)C[C@@H]2O (relative stereo) | 16 |  |  | 
COc1ccc2c(c1)CCC(NCCCc1ccccc1)CC2 (stereo not given) | 11 |  |  | 
